Where “and” joins values, the source holds several entries; their conditions need not be identical. Identical values can stand only once. Entries after “also recorded” stand apart in the source; their conditions may differ.
Assays:
RDL receptors [1] = target: T1, RDL receptors (Drosophila melanogaster, UniProt P25123); experiment: Two-electrode voltage clamp of RDL receptors expressed in Xenopus oocytes; assay type: cell-based; conditions: for EC50: EC50, RDL receptors in Xenopus oocytes; for nH (Hill coefficient) / Imax/Imax(GABA) / pEC50: means ± SEM; for Imax/Imax(GABA): maximal current relative to maximal GABA-evoked response; for pEC50: -60 mV, N/R = no response
T1 sequence (P25123 45-606): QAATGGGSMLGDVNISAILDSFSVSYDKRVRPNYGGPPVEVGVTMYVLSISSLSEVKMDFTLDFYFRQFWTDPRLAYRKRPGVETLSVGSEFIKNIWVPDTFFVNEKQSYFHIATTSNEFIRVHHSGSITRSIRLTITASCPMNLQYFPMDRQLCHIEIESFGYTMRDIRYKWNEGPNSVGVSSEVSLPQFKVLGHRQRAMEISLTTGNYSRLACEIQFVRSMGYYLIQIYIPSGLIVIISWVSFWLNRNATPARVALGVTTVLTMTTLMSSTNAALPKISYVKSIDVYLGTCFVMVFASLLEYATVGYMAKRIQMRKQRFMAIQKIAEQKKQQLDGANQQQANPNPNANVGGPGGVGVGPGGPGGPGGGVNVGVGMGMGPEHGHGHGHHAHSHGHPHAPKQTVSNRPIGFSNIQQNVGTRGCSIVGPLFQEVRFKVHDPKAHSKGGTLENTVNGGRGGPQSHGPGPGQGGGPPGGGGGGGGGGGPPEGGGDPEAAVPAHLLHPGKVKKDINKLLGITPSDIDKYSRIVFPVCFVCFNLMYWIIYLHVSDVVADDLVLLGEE

RDL receptors [2] = target: T1, RDL receptors; conditions: background statement; cited from earlier work
[3] = RDL receptors in Xenopus oocytes
[4] = applied at concentrations up to 10 mM

| Compound | EC50 (RDL receptors [1]; Table 1) | nH (Hill coefficient) (RDL receptors [1]; [3]) | Imax/Imax(GABA) (RDL receptors [1]) | pEC50 (RDL receptors [1]; [3]) | further results |
| --- | --- | --- | --- | --- | --- |
| Oc1noc2c1CCNC2 [THIP, 4,5,6,7-tetrahydroisoxazolo[5,4-c]pyridin-3-ol] | 226 µM | 2.4 ± 1.0 | 0.57 ± 0.06 |  | EC50 (RDL receptors [1]): 220 µM; agonist type at RDL receptors (RDL receptors [1]; [3]): partial agonist |
| NCCCC(=O)O [GABA, γ-aminobutyric acid] |  | 1.8 ± 0.2 |  |  |  |
| CN1CCc2cc3c(cc2[C@H]1[C@@H]1OC(=O)c2c1ccc1c2OCO1)OCO3 [bicuculline] |  |  |  |  | inhibition of homomeric RDL receptors (in words) (RDL receptors [2]): not inhibited |
| NCC(=O)O [glycine] |  |  |  | N/R | activation of RDL receptors (in words) (RDL receptors [1]; [3]): inactive; activation of RDL receptors (in words) (RDL receptors [1]; [4]): failed to activate |
| NCc1cc(=O)[nH]o1 [muscimol] | 9.04 µM | 2.2 ± 0.6 | 0.87 ± 0.03 |  | agonist type at RDL receptors (RDL receptors [1]; [3]): full agonist |
| NCC=CC(=O)O [TACA, 4-amino-2-butenoic acid] | 36.7 µM | 1.8 ± 0.2 | 1.0 ± 0.02 |  |  |
| picrotoxin |  |  |  |  | inhibition of homomeric RDL receptors (in words) (RDL receptors [2]): inhibited |
| NCCC(=O)O [β-alanine] | 807 µM | 2.0 ± 0.3 | 1.0 ± 0.03 |  | EC50 (RDL receptors [1]): 800 µM and ~1000 µM |
| Nc1ccc(C(=O)O)cc1 [PABA, p-aminobenzoic acid] |  |  |  | N/R | activation of RDL receptors (in words) (RDL receptors [1]; [4]): failed to activate |
| NCCCCC(=O)O [5-AV, 5-aminovaleric acid] | 1120 µM | 1.0 ± 0.3 | 0.85 ± 0.1 |  | EC50 (RDL receptors [1]): 1100 µM and ~1000 µM |
| O=C(O)C1=CCNCC1 [isoguvacine] | 64.9 µM | 1.9 ± 0.2 | 0.97 ± 0.03 |  |  |
| NCCCP(=O)(O)O [3-APP, 3-aminopropylphosphonic acid] |  |  |  | N/R | activation of RDL receptors (in words) (RDL receptors [1]; [3]): no activating effect; also recorded: inactive |
| NCCCCO [4-AB, 4-amino-1-butanol] |  |  |  | N/R | activation of RDL receptors (in words) (RDL receptors [1]; [3]): inactive; activation of RDL receptors (in words) (RDL receptors [1]; [4]): failed to activate |
| NCCS(=O)(=O)O [taurine] | > 10000 µM |  |  |  | EC50 (RDL receptors [1]): > 10000 µM |
| NCCc1ccc(O)cc1 [tyramine] |  |  |  | N/R | activation of RDL receptors (in words) (RDL receptors [1]; [3]): inactive; activation of RDL receptors (in words) (RDL receptors [1]; [4]): failed to activate |

— PMC2852148 (Biochemistry, 2010)
